The record followed here is patent US9914730B2, “Azaquinazoline inhibitors of Atypical protein Kinase C” (Ignyta, Inc., priority 2012, dated 2018).

The test deals with T1, full-length human PKCι (Homo sapiens, UniProt P41743).
T1 construct: Recombinant, full-length human PKCι expressed in Sf21 insect cells is also commercially available; purchased; host or cells: Sf21 insect cells
T1 sequence (P41743 1-596): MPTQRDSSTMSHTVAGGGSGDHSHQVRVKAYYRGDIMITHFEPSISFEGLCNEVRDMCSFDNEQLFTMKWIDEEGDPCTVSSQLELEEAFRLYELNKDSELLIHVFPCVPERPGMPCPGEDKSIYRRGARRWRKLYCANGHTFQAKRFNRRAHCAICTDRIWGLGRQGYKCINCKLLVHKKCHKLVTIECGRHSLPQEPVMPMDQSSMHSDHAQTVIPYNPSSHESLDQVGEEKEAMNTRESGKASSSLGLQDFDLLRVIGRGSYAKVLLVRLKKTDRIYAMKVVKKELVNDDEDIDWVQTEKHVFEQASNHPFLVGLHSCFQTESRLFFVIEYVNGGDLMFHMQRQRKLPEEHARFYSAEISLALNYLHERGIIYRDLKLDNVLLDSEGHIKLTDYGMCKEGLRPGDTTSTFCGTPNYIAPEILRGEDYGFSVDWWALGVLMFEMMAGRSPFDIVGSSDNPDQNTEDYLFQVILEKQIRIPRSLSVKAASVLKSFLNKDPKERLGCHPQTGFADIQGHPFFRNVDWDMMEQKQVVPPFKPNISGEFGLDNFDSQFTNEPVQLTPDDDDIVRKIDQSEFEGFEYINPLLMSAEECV
The test is described as follows: PKCι IC50 IMAP assay, full-length PKCι at 150 μM ATP. It is filed as biochemical. The note with it: read-out: IC50 in IMAP assay against full length PKCi at 150 μM ATP. Summed up: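 IMAP fluorescence polarisation (ex 485/em 530 nm) read-out; % inhibition set from no-compound (0%) and no-enzyme (100%) controls, IC50 from dose-response curve fit. Sf21-expressed full-length enzyme ~15 pM, 100 nM FAM peptide, ATP 150 μM (5× KM^APP), 60 min at RT.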

Broadly, the IC50 is the point on the concentration scale where inhibition reaches its midpoint. Turning to `C[C@H]1CN(c2nc(-c3ccnc(Nc4nc(F)c(F)cc4F)c3)nc3cncc(C4CCC4)c23)CCN1` [Example 808, {4-[5-Cyclobutyl-4-((S)-3-methyl-piperazin-1-yl)-pyrido[3,4-d]pyrimidin-2-yl]-pyridin-2-yl}-(3,5,6-trifluoro-pyridin-2-yl)-amine], the IC50 was less than 100 nM. Then `CC1(C)CC(Nc2nc(-c3ccnc(Nc4c(F)cccc4F)c3)nc3cncc(C4CC4)c23)CCN1` (stereo not shown) [Example 2038, {5-Cyclopropyl-2-[2-(2,6-difluoro-phenylamino)-pyridin-4-yl]-pyrido[3,4-d]pyrimidin-4-yl}-(2,2-dimethyl-piperidin-4-yl)-amine], with less than 100 nM. For `COC(=O)[C@@H]1C[C@H](NC(=O)[C@@H]2C[C@H](Nc3nc(-c4ccncc4)nc4cnccc34)CN2)CN1` [Example 40, methyl (2S,4S)-4-[(2S,4S)-4-{[2-(pyridin-4-yl)-pyrido[3,4-d]-pyrimidin-4-yl]-amino}pyrrolidine-2-amido]pyrrolidine-2-carboxylate], the IC50 is 1000 to 10000 nM.

Take `c1cc(Nc2cc(-c3nc(N4CCNCC4)c4c(C5CC5)cncc4n3)ccn2)cc(C2CC2)c1` [Example 734, (3-Cyclopropyl-phenyl)-[4-(5-cyclopropyl-4-piperazin-1-yl-pyrido[3,4-d]pyrimidin-2-yl)-pyridin-2-yl]-amine]: the IC50 is less than 100 nM. With `FC(F)(F)c1cc2c(-c3nc(N4CCNCC4)c4c(C5CCC5)cncc4n3)ccnc2[nH]1` [Example 2024, 5-Cyclobutyl-4-piperazin-1-yl-2-(2-trifluoromethyl-1H-pyrrolo[2,3-b]pyridin-4-yl)-pyrido[3,4-d]pyrimidine], the IC50 is less than 100 nM. On to `COc1ccccc1CC(=O)Nc1cc(-c2nc(N[C@@H]3CCNC3)c3ccncc3n2)ccn1` [Example 336, 2-(2-Methoxy-phenyl)-N-{4-[4-((R)-pyrrolidin-3-ylamino)-pyrido[3,4-d]pyrimidin-2-yl]-pyridin-2-yl}-acetamide], for which the IC50 lay in the range of 100 to 1000 nM. Regarding `CN(C)CCN(C)c1nc(-c2ccnc(Nc3c(F)cccc3F)c2)nc2cncc(C3CC3)c12` [Example 797, N-{5-Cyclopropyl-2-[2-(2,6-difluoro-phenylamino)-pyridin-4-yl]-pyrido[3,4-d]pyrimidin-4-yl}-N,N′,N′-trimethyl-ethane-1,2-diamine], the IC50 fell in the range of 100 to 1000 nM. Take `OC1CCN(c2nc(-c3ccnc(Nc4cnn(CC5CCNCC5)c4)c3)nc3cncc(C4CC4)c23)CC1` [Example 732, 1-{5-Cyclopropyl-2-[2-(1-piperidin-4-ylmethyl-1H-pyrazol-4-ylamino)-pyridin-4-yl]-pyrido[3,4-d]pyrimidin-4-yl}-piperidin-4-ol]: the IC50 was less than 100 nM. With `CS(=O)(=O)CCN1CCN(c2nc(-c3ccnc(Nc4ccc(F)cc4)c3)nc3cncc(C4CC4)c23)CC1` [Example 664, (4-{5-Cyclopropyl-4-[4-(2-methanesulfonyl-ethyl)-piperazin-1-yl]-pyrido[3,4-d]pyrimidin-2-yl}-pyridin-2-yl)-(4-fluoro-phenyl)-amine], the IC50 was in the range of 1000 to 10000 nM. With `Brc1cncc2nc(N3CCOCC3)nc(N3CCNCC3)c12` [Example 1015, 5-Bromo-2-morpholin-4-yl-4-piperazin-1-yl-pyrido[3,4-d]pyrimidine], the IC50 lay within 100 to 1000 nM. For `Fc1cnc(Nc2cc(-c3nc(N4CCC(C5CCOCC5)C4)c4c(C5CC5)cncc4n3)ccn2)c(F)c1` (stereo not shown) [Example 2173, (4-{5-Cyclopropyl-4-[3-(tetrahydro-pyran-4-yl)-pyrrolidin-1-yl]-pyrido[3,4-d]pyrimidin-2-yl}-pyridin-2-yl)-(3,5-difluoro-pyridin-2-yl)-amine], the concentration for half-maximal inhibition (IC50) is 1000 to 10000 nM. On to `COc1cncc2nc(-c3ccnc(Nc4ccc(-c5ccccc5)cn4)c3)nc(N[C@@H]3CCNC3)c12` [Example 329, {5-Methoxy-2-[2-(5-phenyl-pyridin-2-ylamino)-pyridin-4-yl]-pyrido[3,4-d]pyrimidin-4-yl}-(R)-pyrrolidin-3-yl-amine], for which the IC50 is less than 100 nM.

In the case of `c1ccc(CC2CN(c3nc(N[C@@H]4CCNC4)c4ccncc4n3)CCO2)cc1` (stereo partly drawn) [Example 1001, [2-(2-Benzyl-morpholin-4-yl)-pyrido[3,4-d]pyrimidin-4-yl]-(R)-pyrrolidin-3-yl-amine], the IC50 lay within 1000 to 10000 nM.

On to `CC1(Nc2nc(-c3ccnc(Nc4ncc(F)cc4F)c3)nc3cncc(C4CC4)c23)CCNCC1` [Example 2174, {5-Cyclopropyl-2-[2-(3,5-difluoro-pyridin-2-ylamino)-pyridin-4-yl]-pyrido[3,4-d]pyrimidin-4-yl}-(4-methyl-piperidin-4-yl)-amine], for which the IC50 is less than 100 nM. On to `N#CC1CCN(c2nc(-c3ccnc4[nH]c(C(F)(F)F)cc34)nc3cncc(C4CC4)c23)CC1` [Example 1241, 1-[5-Cyclopropyl-2-(2-trifluoromethyl-1H-pyrrolo[2,3-b]pyridin-4-yl)-pyrido[3,4-d]pyrimidin-4-yl]-piperidine-4-carbonitrile], for which the IC50 is 100 to 1000 nM. Take `FC(F)(F)CNc1cc(-c2nc(N3CCNCC3)c3c(C4CC4)cncc3n2)ccn1` [Example 532, [4-(5-Cyclopropyl-4-piperazin-1-yl-pyrido[3,4-d]pyrimidin-2-yl)-pyridin-2-yl]-(2,2,2-trifluoro-ethyl)-amine]: the IC50 is less than 100 nM. As for `CN(C)C(=O)c1ccc(Nc2cc(-c3nc(N4CCNCC4)c4c(C5CC5)cncc4n3)ccn2)cc1` [Example 2003, 4-[4-(5-Cyclopropyl-4-piperazin-1-yl-pyrido[3,4-d]pyrimidin-2-yl)-pyridin-2-ylamino]-N,N-dimethyl-benzamide], the figure is less than 100 nM; as for `CN(c1nc(-c2ccnc(Nc3ccc4ccccc4n3)c2)nc2cncc(C3CC3)c12)C1CCNCC1` [Example 2138, {5-Cyclopropyl-2-[2-([D4],[D3]uinolin-2-ylamino)-pyridin-4-yl]-pyrido[3,4-d]pyrimidin-4-yl}-methyl-piperidin-4-yl-amine], less than 100 nM; as for `CC(C)(C)OC(=O)N1CCCN(c2nc(-c3ccncc3)nc3cnccc23)CC1` [Example 23, tert-butyl 4-[2-(pyridin-4-yl)-pyrido[3,4-d]pyrimidin-4-yl]-1,4-diazepane-1-carboxylate], 10000 to 40000 nM. On to `COc1cncc2nc(-c3ccnc(NC(=O)Cc4ccc(C(F)(F)F)cc4)c3)nc(N3CCNCC3)c12` [Example 391, N-[4-(5-Methoxy-4-piperazin-1-yl-pyrido[3,4-d]pyrimidin-2-yl)-pyridin-2-yl]-2-(4-trifluoromethyl-phenyl)-acetamide], for which the IC50 is less than 100 nM.

Take `FC(F)(F)c1cc2c(-c3nc(N4CCCCC4)c4c(C5CC5)cncc4n3)ccnc2[nH]1` [Example 1237, 5-Cyclopropyl-4-piperidin-1-yl-2-(2-trifluoromethyl-1H-pyrrolo[2,3-b]pyridin-4-yl)-pyrido[3,4-d]pyrimidine]: the IC50 was in the range of 100 to 1000 nM. Regarding `COc1cncc2nc(-c3ccnc(Nc4cccnc4F)c3)nc(N3CCNCC3)c12` [Example 450, (2-Fluoro-pyridin-3-yl)-[4-(5-methoxy-4-piperazin-1-yl-pyrido[3,4-d]pyrimidin-2-yl)-pyridin-2-yl]-amine], the IC50 was less than 100 nM.

For `C=Cc1cncc2nc(-c3ccnc(Nc4c(F)cccc4F)c3)nc(N3CCNCC3)c12` [Example 2094, (2,6-Difluoro-phenyl)-[4-(4-piperazin-1-yl-5-vinyl-pyrido[3,4-d]pyrimidin-2-yl)-pyridin-2-yl]-amine], the IC50 was less than 100 nM. Take `COc1cncc2nc(-c3ccnc(Nc4ncccc4F)c3)nc(N3CCNCC3)c12` [Example 411, (3-Fluoro-pyridin-2-yl)-[4-(5-methoxy-4-piperazin-1-yl-pyrido[3,4-d]pyrimidin-2-yl)-pyridin-2-yl]-amine]: the IC50 is less than 100 nM. On to `COc1cc(Nc2cc(-c3nc(N4CCNCC4)c4c(OC)cncc4n3)ccn2)cc(OC)c1OC` [Example 390, [4-(5-Methoxy-4-piperazin-1-yl-pyrido[3,4-d]pyrimidin-2-yl)-pyridin-2-yl]-(3,4,5-trimethoxy-phenyl)-amine], for which the IC50 was in the range of 100 to 1000 nM.

In the case of `O[C@@H]1CN(c2nc(-c3ccnc(Nc4cccc(N5CCOCC5)c4)c3)nc3cncc(C4CC4)c23)CC[C@@H]1O` (racemic) [Example 2005, (+/−)-cis-1-{5-Cyclopropyl-2-[2-(3-morpholin-4-yl-phenylamino)-pyridin-4-yl]-pyrido[3,4-d]pyrimidin-4-yl}-piperidine-3,4-diol], the half-inhibitory concentration (IC50) is less than 100 nM. On to `COc1cncc2nc(-c3ccncc3)nc(N3CCNC(C(=O)NCc4ccccc4)C3)c12` (stereo not shown) [Example 157, 4-(5-Methoxy-2-pyridin-4-yl-pyrido[3,4-d]pyrimidin-4-yl)-piperazine-2-carboxylic acid benzylamide], for which the IC50 was in the range of 1000 to 10000 nM. As for `Fc1nc(N2CCOCC2)ccc1Nc1cc(-c2nc(N3CCNCC3)c3c(C4CC4)cncc3n2)ccn1` [Example 731, [4-(5-Cyclopropyl-4-piperazin-1-yl-pyrido[3,4-d]pyrimidin-2-yl)-pyridin-2-yl]-(2-fluoro-6-morpholin-4-yl-pyridin-3-yl)-amine], the IC50 was less than 100 nM.
